Measurements: the supplement of paper PMC10307832

Legend:
Experiment in all cases: relative viability (nuclei count vs DMSO), 5 days (fraction); higher = more cells survive
[1] = system: NCI-H322M
Procedure, shortened: (§1)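 Dosing by pin tool came one day after lung cancer cell lines were seeded in 1536-well plates, using either one drug or a fixed anchor-drug dose plus five library-drug doses (not always all listed) in √10 steps. After 5 days, nuclei were counted on 4× images. Relative viability is treated-well nuclei count divided by vehicle-well nuclei count, and values are medians of duplicate plates.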

[2] = system: 201T
Procedure, shortened: as §1

[3] = system: NCI-H2126
Procedure, shortened: as §1

[4] = system: COR-L 105
Procedure, shortened: as §1

[5] = system: NCI-H650
Procedure, shortened: as §1

[6] = system: NCI-H2405
Procedure, shortened: as §1

[7] = system: NCI-H2347
Procedure, shortened: as §1

[8] = system: NCI-H2087
Procedure, shortened: as §1

[9] = system: NCI-H520
Procedure, shortened: as §1

[10] = system: ChaGo-K-1
Procedure, shortened: as §1

[11] = system: HCC-78
Procedure, shortened: as §1

[12] = system: NCI-H522
Procedure, shortened: as §1

[13] = system: EPLC-272H
Procedure, shortened: as §1

[14] = system: LCLC-97TM1
Procedure, shortened: as §1

[15] = system: RERF-LC-KJ
Procedure, shortened: as §1

[16] = system: NCI-H1915
Procedure, shortened: as §1

[17] = system: NCI-H661
Procedure, shortened: as §1

[18] = system: PC-14
Procedure, shortened: as §1

[19] = system: NCI-H1666
Procedure, shortened: as §1

[20] = system: HCC-827
Procedure, shortened: as §1

[21] = system: NCI-H647
Procedure, shortened: as §1

[22] = system: H3255
Procedure, shortened: as §1

[23] = system: LC-2-ad
Procedure, shortened: as §1

[24] = system: NCI-H23
Procedure, shortened: as §1

## COc1cc(N2CCC(C(N)=O)CC2)ccc1Nc1nc(N)c(Cl)c(Nc2ccccc2S(=O)(=O)C(C)C)n1 [HG-5-88-01] + Nc1nc2[nH]cc(CCc3ccc(C(=O)N[C@@H](CCC(=O)O)C(=O)O)cc3)c2c(=O)[nH]1 [Pemetrexed] (partner 0.2 µM)
[1]; first compound 0.04 µM
  relative viability: 0.638
[1]; first compound 0.1265 µM
  relative viability: 0.536
[1]; first compound 0.4 µM
  relative viability: 0.607
[1]; first compound 1.265 µM
  relative viability: 0.55
[1]; first compound 4 µM
  relative viability: 0.509
[2]; first compound 0.04 µM
  relative viability: 0.301
[2]; first compound 0.1265 µM
  relative viability: 0.325
[2]; first compound 1.265 µM
  relative viability: 0.332
[2]; first compound 4 µM
  relative viability: 0.272
[3]; first compound 0.04 µM
  relative viability: 0.644
[3]; first compound 0.1265 µM
  relative viability: 0.667
[3]; first compound 0.4 µM
  relative viability: 0.68
[3]; first compound 1.265 µM
  relative viability: 0.641
[3]; first compound 4 µM
  relative viability: 0.452
[4]; first compound 0.04 µM
  relative viability: 1.02
[4]; first compound 0.1265 µM
  relative viability: 1.21
[4]; first compound 0.4 µM
  relative viability: 1.18
[4]; first compound 1.265 µM
  relative viability: 0.989
[4]; first compound 4 µM
  relative viability: 0.899
[5]; first compound 0.04 µM
  relative viability: 0.985
[5]; first compound 0.1265 µM
  relative viability: 0.91
[5]; first compound 0.4 µM
  relative viability: 0.844
[5]; first compound 1.265 µM
  relative viability: 0.896
[5]; first compound 4 µM
  relative viability: 0.476
[6]; first compound 0.04 µM
  relative viability: 0.965
[6]; first compound 0.1265 µM
  relative viability: 1.16
[6]; first compound 0.4 µM
  relative viability: 0.973
[6]; first compound 1.265 µM
  relative viability: 0.852
[6]; first compound 4 µM
  relative viability: 0.954
[7]; first compound 0.04 µM
  relative viability: 0.413
[7]; first compound 0.1265 µM
  relative viability: 0.399
[7]; first compound 0.4 µM
  relative viability: 0.433
[7]; first compound 1.265 µM
  relative viability: 0.424
[7]; first compound 4 µM
  relative viability: 0.441
[8]; first compound 0.04 µM
  relative viability: 0.664
[8]; first compound 0.1265 µM
  relative viability: 0.689
[8]; first compound 0.4 µM
  relative viability: 0.67
[8]; first compound 1.265 µM
  relative viability: 0.651
[8]; first compound 4 µM
  relative viability: 0.715
[9]; first compound 0.04 µM
  relative viability: 0.604
[9]; first compound 0.1265 µM
  relative viability: 0.592
[9]; first compound 0.4 µM
  relative viability: 0.454
[9]; first compound 1.265 µM
  relative viability: 0.737
[9]; first compound 4 µM
  relative viability: 0.61
[10]; first compound 0.04 µM
  relative viability: 0.262
[10]; first compound 0.1265 µM
  relative viability: 0.271
[10]; first compound 0.4 µM
  relative viability: 0.24
[10]; first compound 1.265 µM
  relative viability: 0.266
[10]; first compound 4 µM
  relative viability: 0.258
[11]; first compound 0.04 µM
  relative viability: 0.824
[11]; first compound 0.1265 µM
  relative viability: 0.814
[11]; first compound 0.4 µM
  relative viability: 0.884
[11]; first compound 1.265 µM
  relative viability: 0.849
[11]; first compound 4 µM
  relative viability: 0.795
[12]; first compound 0.04 µM
  relative viability: 0.967
[12]; first compound 0.1265 µM
  relative viability: 0.969
[12]; first compound 0.4 µM
  relative viability: 1.01
[12]; first compound 1.265 µM
  relative viability: 0.841
[12]; first compound 4 µM
  relative viability: 0.783
[13]; first compound 0.04 µM
  relative viability: 0.341
[13]; first compound 0.1265 µM
  relative viability: 0.262
[13]; first compound 0.4 µM
  relative viability: 0.319
[13]; first compound 1.265 µM
  relative viability: 0.307
[13]; first compound 4 µM
  relative viability: 0.0795
[14]; first compound 0.04 µM
  relative viability: 0.208
[14]; first compound 0.1265 µM
  relative viability: 0.179
[14]; first compound 0.4 µM
  relative viability: 0.132
[14]; first compound 1.265 µM
  relative viability: 0.155
[14]; first compound 4 µM
  relative viability: 0.131
[15]; first compound 0.04 µM
  relative viability: 0.521
[15]; first compound 0.1265 µM
  relative viability: 0.509
[15]; first compound 0.4 µM
  relative viability: 0.448
[15]; first compound 1.265 µM
  relative viability: 0.446
[15]; first compound 4 µM
  relative viability: 0.239
[16]; first compound 0.04 µM
  relative viability: 0.471
[16]; first compound 0.1265 µM
  relative viability: 0.5
[16]; first compound 0.4 µM
  relative viability: 0.352
[16]; first compound 1.265 µM
  relative viability: 0.541
[16]; first compound 4 µM
  relative viability: 0.441
[17]; first compound 0.04 µM
  relative viability: 0.909
[17]; first compound 0.1265 µM
  relative viability: 0.931
[17]; first compound 0.4 µM
  relative viability: 0.883
[17]; first compound 1.265 µM
  relative viability: 0.974
[17]; first compound 4 µM
  relative viability: 0.965
[18]; first compound 0.04 µM
  relative viability: 0.124
[18]; first compound 0.1265 µM
  relative viability: 0.114
[18]; first compound 0.4 µM
  relative viability: 0.0722
[18]; first compound 1.265 µM
  relative viability: 0.129
[18]; first compound 4 µM
  relative viability: 0.074
[19]; first compound 0.04 µM
  relative viability: 0.893
[19]; first compound 0.1265 µM
  relative viability: 0.762
[19]; first compound 0.4 µM
  relative viability: 0.828
[19]; first compound 1.265 µM
  relative viability: 0.732
[19]; first compound 4 µM
  relative viability: 0.592
[20]; first compound 0.04 µM
  relative viability: 0.24
[20]; first compound 0.1265 µM
  relative viability: 0.262
[20]; first compound 0.4 µM
  relative viability: 0.216
[20]; first compound 1.265 µM
  relative viability: 0.141
[20]; first compound 4 µM
  relative viability: 0.193
[21]; first compound 0.04 µM
  relative viability: 0.159
[21]; first compound 0.1265 µM
  relative viability: 0.194
[21]; first compound 1.265 µM
  relative viability: 0.184
[21]; first compound 4 µM
  relative viability: 0.157
[22]; first compound 0.04 µM
  relative viability: 0.578
[22]; first compound 0.1265 µM
  relative viability: 0.571
[22]; first compound 0.4 µM
  relative viability: 0.54
[22]; first compound 4 µM
  relative viability: 0.501
[23]; first compound 0.04 µM
  relative viability: 0.257
[23]; first compound 0.1265 µM
  relative viability: 0.257
[23]; first compound 0.4 µM
  relative viability: 0.259
[23]; first compound 1.265 µM
  relative viability: 0.275
[23]; first compound 4 µM
  relative viability: 0.267
[24]; first compound 0.04 µM
  relative viability: 0.678
[24]; first compound 0.1265 µM
  relative viability: 0.77
[24]; first compound 0.4 µM
  relative viability: 0.592
[24]; first compound 1.265 µM
  relative viability: 0.56
[24]; first compound 4 µM
  relative viability: 0.385
